The values that follow come from the supplement of paper PMC11208160.

This series can be described thus: recombinant barcode read abundance after kanamycin selection (control-corrected) (log10(CPM+1)); higher = more efficient recombination; sequences stand for … in AGTGCAGAGAAAATCGGCCAGTTTTCTCTGCCTGCAGTCCGCATGCCGT…ATTTATGCAGCGGACTGCCTTTCTCCCAAAGTGATAAACCGGACAGTATCATGGACCGGTTTTCCCGGTAATCCGTATTTGCAAGGTTGGTTTCACT; site = the 11-nt target. How it is done: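 Same pooled E. coli target screen (IS621 bridge recombinase, kanamycin selection, control-corrected CPM, mean of 2 biological replicates). Here the two core-binding nucleotides of the LTG and RTG of the bridge RNA target-binding loop are mutated. Target and donor CT cores are held constant, and the other 9 guide positions match the target. The target is read from the library oligo sequence. Molecule = full bridge RNA written as DNA: nt 1-80 from the library oligo, rest WT scaffold.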
Regarding “AGGCGGTGTTGGGTTCTAACCTGTTGCTTAG [AGGCGGTCTAA_LTGcore_GT_RTGcore_CT] (site AGGCGGTCTAA) (LTG core: GT, RTG core: CT)”, the “recombinant barcode read abundance (log10)” value is 0.203.
For the sequence “AGGCGGTTGTGGGTTCTAACCTGTTGCTTAG [AGGCGGTCTAA_LTGcore_TG_RTGcore_CT] (site AGGCGGTCTAA) (LTG core: TG, RTG core: CT)”, the “recombinant barcode read abundance (log10)” value amounted to 0.113.
For “AGTCTTAAGTGGGTTCTAACCTGTTGCCAAG [AGTCTTACTTG_LTGcore_AG_RTGcore_CT] (site AGTCTTACTTG) (LTG core: AG, RTG core: CT)”, the “recombinant barcode read abundance (log10)” value is 0.102.
Take “AGTCTTAATTGGGTTCTAACCTGTTGCCAAT [AGTCTTACTTG_LTGcore_AT_RTGcore_AT] (site AGTCTTACTTG) (LTG core: AT, RTG core: AT)”: the “recombinant barcode read abundance (log10)” value came out at 0.0434.
As for “AGTCTTACCTGGGTTCTAACCTGTTGCCAGG [AGTCTTACTTG_LTGcore_CC_RTGcore_CC] (site AGTCTTACTTG) (LTG core: CC, RTG core: CC)”, the “recombinant barcode read abundance (log10)” value amounted to 0.117.
On to “AGTCTTACTTGGGTTCTAACCTGTTGCCACA [AGTCTTACTTG_LTGcore_CT_RTGcore_TG] (site AGTCTTACTTG) (LTG core: CT, RTG core: TG)”, for which the “recombinant barcode read abundance (log10)” value stood at 0.032.
With “AGTCTTATATGGGTTCTAACCTGTTGCCAAG [AGTCTTACTTG_LTGcore_TA_RTGcore_CT] (site AGTCTTACTTG) (LTG core: TA, RTG core: CT)”, the “recombinant barcode read abundance (log10)” value is 0.0306.
With “AGTCTTATTTGGGTTCTAACCTGTTGCCAAA [AGTCTTACTTG_LTGcore_TT_RTGcore_TT] (site AGTCTTACTTG) (LTG core: TT, RTG core: TT)” the figure was 0.0474; with “ATGCTTTAATGGGTTCTAACCTGTTGCCTAG [ATGCTTTCTAG_LTGcore_AA_RTGcore_CT] (site ATGCTTTCTAG) (LTG core: AA, RTG core: CT)”, 0.0699.
Under “ATGCTTTATTGGGTTCTAACCTGTTGCCTAG [ATGCTTTCTAG_LTGcore_AT_RTGcore_CT] (site ATGCTTTCTAG) (LTG core: AT, RTG core: CT)” stands 0.162; under “ATGCTTTCTTGGGTTCTAACCTGTTGCCTAG [ATGCTTTCTAG_LTGcore_CT_RTGcore_CT] (site ATGCTTTCTAG) (LTG core: CT, RTG core: CT)”, 0.384; under “ATGCTTTCTTGGGTTCTAACCTGTTGCCTCT [ATGCTTTCTAG_LTGcore_CT_RTGcore_AG] (site ATGCTTTCTAG) (LTG core: CT, RTG core: AG)”, 0.0217.
As to “ATGCTTTCTTGGGTTCTAACCTGTTGCCTGA [ATGCTTTCTAG_LTGcore_CT_RTGcore_TC] (site ATGCTTTCTAG) (LTG core: CT, RTG core: TC)”, the “recombinant barcode read abundance (log10)” value amounted to 0.0714.
Under “ATGCTTTGCTGGGTTCTAACCTGTTGCCTAG [ATGCTTTCTAG_LTGcore_GC_RTGcore_CT] (site ATGCTTTCTAG) (LTG core: GC, RTG core: CT)” stands 0.0505; under “ATGCTTTGGTGGGTTCTAACCTGTTGCCTCC [ATGCTTTCTAG_LTGcore_GG_RTGcore_GG] (site ATGCTTTCTAG) (LTG core: GG, RTG core: GG)”, 0.235.
Take “ATGTCCCACTGGGTTCTAACCTGTTGCTCGT [ATGTCCCCTGA_LTGcore_AC_RTGcore_AC] (site ATGTCCCCTGA) (LTG core: AC, RTG core: AC)”: the “recombinant barcode read abundance (log10)” value worked out at 0.183.
As to “ATGTCCCAGTGGGTTCTAACCTGTTGCTCAG [ATGTCCCCTGA_LTGcore_AG_RTGcore_CT] (site ATGTCCCCTGA) (LTG core: AG, RTG core: CT)”, the “recombinant barcode read abundance (log10)” value turned out to be 0.0996.
As to “ATGTCCCATTGGGTTCTAACCTGTTGCTCAG [ATGTCCCCTGA_LTGcore_AT_RTGcore_CT] (site ATGTCCCCTGA) (LTG core: AT, RTG core: CT)”, the “recombinant barcode read abundance (log10)” value amounted to 0.234.
Turning to “ATGTCCCCTTGGGTTCTAACCTGTTGCTCCG [ATGTCCCCTGA_LTGcore_CT_RTGcore_CG] (site ATGTCCCCTGA) (LTG core: CT, RTG core: CG)”, the “recombinant barcode read abundance (log10)” value turned out to be 0.249.
Take “ATGTCCCCTTGGGTTCTAACCTGTTGCTCGC [ATGTCCCCTGA_LTGcore_CT_RTGcore_GC] (site ATGTCCCCTGA) (LTG core: CT, RTG core: GC)”: the “recombinant barcode read abundance (log10)” value turned out to be 0.327.
“ATGTCCCCTTGGGTTCTAACCTGTTGCTCGG [ATGTCCCCTGA_LTGcore_CT_RTGcore_CC] (site ATGTCCCCTGA) (LTG core: CT, RTG core: CC)”: the “recombinant barcode read abundance (log10)” value was found to be 0.29.
Regarding “ATGTCCCGATGGGTTCTAACCTGTTGCTCAG [ATGTCCCCTGA_LTGcore_GA_RTGcore_CT] (site ATGTCCCCTGA) (LTG core: GA, RTG core: CT)”, the “recombinant barcode read abundance (log10)” value is 0.647.
For “ATGTCCCGGTGGGTTCTAACCTGTTGCTCAG [ATGTCCCCTGA_LTGcore_GG_RTGcore_CT] (site ATGTCCCCTGA) (LTG core: GG, RTG core: CT)”, the “recombinant barcode read abundance (log10)” value was 0.294.
As to “ATGTCCCGTTGGGTTCTAACCTGTTGCTCAC [ATGTCCCCTGA_LTGcore_GT_RTGcore_GT] (site ATGTCCCCTGA) (LTG core: GT, RTG core: GT)”, the “recombinant barcode read abundance (log10)” value came out at 0.0823.
Turning to “ATGTCCCTCTGGGTTCTAACCTGTTGCTCAG [ATGTCCCCTGA_LTGcore_TC_RTGcore_CT] (site ATGTCCCCTGA) (LTG core: TC, RTG core: CT)”, the “recombinant barcode read abundance (log10)” value was determined as 0.209.
With “ATGTCCCTGTGGGTTCTAACCTGTTGCTCAG [ATGTCCCCTGA_LTGcore_TG_RTGcore_CT] (site ATGTCCCCTGA) (LTG core: TG, RTG core: CT)” the figure was 0.0616.
With “ATGTCCCTGTGGGTTCTAACCTGTTGCTCCA [ATGTCCCCTGA_LTGcore_TG_RTGcore_TG] (site ATGTCCCCTGA) (LTG core: TG, RTG core: TG)” the figure was 0.0547; with “CATATTAACTGGGTTCTAACCTGTTGCCTAG [CATATTACTAG_LTGcore_AC_RTGcore_CT] (site CATATTACTAG) (LTG core: AC, RTG core: CT)”, 0.441.
For the sequence “CATATTACCTGGGTTCTAACCTGTTGCCTAG [CATATTACTAG_LTGcore_CC_RTGcore_CT] (site CATATTACTAG) (LTG core: CC, RTG core: CT)”, the “recombinant barcode read abundance (log10)” value came to 0.0888.
With “CATATTACTTGGGTTCTAACCTGTTGCCTCC [CATATTACTAG_LTGcore_CT_RTGcore_GG] (site CATATTACTAG) (LTG core: CT, RTG core: GG)” the figure was 0.2.
Turning to “CATATTACTTGGGTTCTAACCTGTTGCCTTA [CATATTACTAG_LTGcore_CT_RTGcore_TA] (site CATATTACTAG) (LTG core: CT, RTG core: TA)”, the “recombinant barcode read abundance (log10)” value was found to be 0.12.
“CATATTACTTGGGTTCTAACCTGTTGCCTTG [CATATTACTAG_LTGcore_CT_RTGcore_CA] (site CATATTACTAG) (LTG core: CT, RTG core: CA)”: the “recombinant barcode read abundance (log10)” value came to 0.214.
Consider “CATATTAGATGGGTTCTAACCTGTTGCCTAG [CATATTACTAG_LTGcore_GA_RTGcore_CT] (site CATATTACTAG) (LTG core: GA, RTG core: CT)”, for which the “recombinant barcode read abundance (log10)” value amounted to 0.239.
Under “CGAGCCCAATGGGTTCTAACCTGTTGCTGTT [CGAGCCCCTCA_LTGcore_AA_RTGcore_AA] (site CGAGCCCCTCA) (LTG core: AA, RTG core: AA)” stands 0.0507; under “CGAGCCCCTTGGGTTCTAACCTGTTGCTGAT [CGAGCCCCTCA_LTGcore_CT_RTGcore_AT] (site CGAGCCCCTCA) (LTG core: CT, RTG core: AT)”, 0.29; under “CGAGCCCCTTGGGTTCTAACCTGTTGCTGCT [CGAGCCCCTCA_LTGcore_CT_RTGcore_AG] (site CGAGCCCCTCA) (LTG core: CT, RTG core: AG)”, 0.203.
With “CGAGCCCCTTGGGTTCTAACCTGTTGCTGGT [CGAGCCCCTCA_LTGcore_CT_RTGcore_AC] (site CGAGCCCCTCA) (LTG core: CT, RTG core: AC)” the figure was 1.21; with “CGAGCCCTTTGGGTTCTAACCTGTTGCTGAG [CGAGCCCCTCA_LTGcore_TT_RTGcore_CT] (site CGAGCCCCTCA) (LTG core: TT, RTG core: CT)”, 0.048; with “CGCGCCCAGTGGGTTCTAACCTGTTGCGGCT [CGCGCCCCTCC_LTGcore_AG_RTGcore_AG] (site CGCGCCCCTCC) (LTG core: AG, RTG core: AG)”, 0.0334.
On to “CGCGCCCATTGGGTTCTAACCTGTTGCGGAG [CGCGCCCCTCC_LTGcore_AT_RTGcore_CT] (site CGCGCCCCTCC) (LTG core: AT, RTG core: CT)”, for which the “recombinant barcode read abundance (log10)” value was 0.0641.
In the case of “CGCGCCCCTTGGGTTCTAACCTGTTGCGGAG [CGCGCCCCTCC_LTGcore_CT_RTGcore_CT] (site CGCGCCCCTCC) (LTG core: CT, RTG core: CT)”, the “recombinant barcode read abundance (log10)” value was 0.131.
